# Measured values: patent US10570179B2, “Substituted urea depsipeptide analogs as activators of the CLPP endopeptidase” (priority 2016, dated 2020)
# Numbered stars: 1 amine (or outer) side, 2 acyl side, 3 side chain; on linkers, the order of the positions; unused ones are H or OH. Bridge positions count the residues as written; N and C are the ends. Square brackets hold non-standard residues; d marks the D form. Peptide text beside a SMILES is read from it. * marks the point of attachment. X5 = O=C([C@@H]1C[C@@H](OP(=O)(O)O)CN1[*:1])[*:2]; Piperazine(2S-CO,4-Me) = CN1CCN[C@H](C(=O)O)C1; X6 = O=C([C@@H]1CS(=O)(=O)CCN1[*:1])[*:2]; Phe(3-Cl) = N[C@@H](Cc1cccc(Cl)c1)C(=O)O; Morpholine(3S-CO) = O=C(O)[C@@H]1COCCN1; Phe(3-Me) = Cc1cccc(C[C@H](N)C(=O)O)c1; NH(4-Cl-2-F-phenyl) = Fc1cc(Cl)ccc1N*; Pro(4R-Me) = C[C@H]1CN[C@H](C(=O)O)C1; X1 = O=C([C@@H]1CSCCN1[*:1])[*:2]; Hyp = O=C(O)[C@@H]1C[C@@H](O)CN1; NH(4-Et-phenyl) = CCc1ccc(N*)cc1; NH(4-Me-phenyl) = Cc1ccc(N*)cc1; aThr = C[C@H](O)[C@H](N)C(=O)O; Pip = O=C(O)[C@@H]1CCCCN1; X3 = c1cc2c(cc1N*)OCCO2; CO = O=C([*:1])[*:2]; X2 = Fc1cc(N*)ccc1Cl
# How the values were obtained:
# [1] = Plasma protein binding, rapid equilibrium dialysis; format: in vitro ADME, mouse
# Protocol: This assay determines plasma protein binding of a drug/compound and free drug concentration in plasma using rapid equilibrium dialysis, which allow the aqueous component of plasma containing the free drug/compound through a dialysis membrane (MWCO˜8,000).
# Solutions were prepared at 10 mM in DMSO. Dulbecco's phosphate buffered saline (DPBS; pH 7.4) was obtained from Invitrogen (Carlsbad, Calif.). Single-Use RED (rapid equilibrium dialysis) device was obtained from Thermo scientific (Rockford, Ill.). Human plasma was obtained from Innovative Research INC (Novi, Michigan, Ill).
# Sample preparation for plasma protein binding was modified from Waters' method. (Waters et al. (2008) J. Pharm. Sci. 97(10): 4586-95). The Teflon base plate with the RED inserts (MWCO 8 K) were allowed to use without any pre-condition the membrane inserts. Human plasma was thawed and centrifuged at 1000 rpm for 2 min to remove any particulates. Each compound was prepared at 10 μM in human plasma. This was done by adding 1 μL, of drug solution (10 mM in DMSO) to 1000 μL, of human plasma (0.1% DMSO). Spiked plasma solutions (300 μL) were placed into the sample chamber (indicated by the red ring) and 500 μL, of DPBS into the adjacent chamber. The plate was sealed and incubated at 37° C. on an orbital shaker (100 rpm) for 4 hours. After incubation, the seal was removed from the RED plate and the volume of the insert confirmed—little to no volume change occurred. Aliquots (50 μL) were removed from each side of the insert and dispensed into a 96-well deep plate. An equal volume of blank plasma or DPBS was added to the required wells to create analytically identical sample matrices (matrix matching). To each sample 200 μL, of ACN containing 4 μg/mL warfarin IS was added. All of the plates were sealed and mixed well at 600 rpm for 10 min and were centrifuged at 4000 rpm for 20 min. The supernatants (120 μL) were transferred to analytical plates for analysis by LCMS. Conditions for Waters ACQUITY-UPLC-MS-UV system were described separately. The test compound concentrations were quantified in both buffer and plasma chambers via peak areas relative to the internal standard. The percentage of the test compound bound to plasma was calculated on following equations: % Free=(Concentration buffer chamber/concentration plasma chamber)×100% and % Bound=100%-% Free.
# [2] = Plasma stability assay; format: in vitro ADME, human
# Protocol: The plasma stability property of early drug discovery compounds can influence the in vivo efficacy of the test compounds/drugs. Human and/or mouse plasma degradation is determined using multiple time points to monitor the rate of disappearance of the parent compound during incubation.
# Sample preparation for plasma stability was modified from Di et al. (2005) Int. J. Pharm. 297(1-2): 110-119. A set of incubation times of 0, 3, 24, and 48 hour were used. DMSO stock solutions of test compounds were prepared at 10 mM concentration. 1.8 μL of each test compound was each added directly to 1.8 mL of human/mouse plasma to get the final concentration of 10 μM. This compound/matrix was mixed and 70 μL was transferred to 8 time points plates (each in triplicate wells). For the Time 0 plate, 210 μL of cold acetonitrile with internal standard (4 μg/mL warfarin) was added to each well and no incubation needed. For other seven time points' plate, the plate was incubated at 37° C. for required time, followed by quenching of the reaction by adding 210 μL of cold acetonitrile with internal standard (4 μg/ml warfarin) to each well. All of the plates were sealed and mixed well at 600 rpm for 10 min and were centrifuged at 4000 rpm for 20 min. The supernatants (120 μL) were transferred to analytical plates for analysis by LCMS. Conditions for Waters ACQUITY-UPLC-MS-UV system was described separately. The plasma stability was evaluated via the half-life from least-squares fit of the multiple time points based on first-order kinetics.
# [3] = plasma binding, % Bound, mouse plasma
# [4] = plasma stability half-life, human plasma, 37° C.
structure (smiles),measurement,setting,value
"CCc1ccc(NC(=O)N[C@@H](Cc2cccc(C)c2)C(=O)N[C@@H]2C(=O)N3C[C@H](O)C[C@H]3C(=O)N3CCCC[C@H]3C(=O)N[C@@H](C)C(=O)N3C[C@H](C)C[C@H]3C(=O)O[C@H]2C)cc1 [Compound 25, (S)-2-(3-(4-ETHYLPHENYL)UREIDO)-N-((2R,6S,8AS,14AS,16R,20S,21S,23AS)-16-HYDROXY-2,6,21-TRIMETHYL-5,8,14,19,23-PENTAOXOOCTADECAHYDRO-1H,5H,14H,19H-PYRIDO[2,1-I]DIPYRROLO[2,1-C:2′,1′-L][1]OXA[4,7,10,13]TETRAAZACYCLOHEXADECIN-20-YL)-3-(M-TOLYL)PROPANAMIDE] ({NH(4-Et-phenyl)-CO}-[Phe(3-Me)][aThr][Hyp][Pip]A[Pro(4R-Me)]; ester 2-C)",Mouse,"[1]; mouse, 4 h, 10 μM, pH 7.4",99.5 ± 0.11%
same,Human,"[2]; human, 10 μM",>50 h
"Cc1ccc(NC(=O)N[C@@H](Cc2cccc(C)c2)C(=O)N[C@@H]2C(=O)N3C[C@H](O)C[C@H]3C(=O)N3CCCC[C@H]3C(=O)N[C@@H](C)C(=O)N3C[C@H](C)C[C@H]3C(=O)O[C@H]2C)cc1 [Compound 26, (S)—N-((2R,6S,8AS,14AS,16R,20S,21S,23AS)-16-HYDROXY-2,6,21-TRIMETHYL-5,8,14,19,23-PENTAOXOOCTADECAHYDRO-1H,5H,14H,19H-PYRIDO[2,1-I]DIPYRROLO[2,1-C:2′,1′-L][1]OXA[4,7,10,13]TETRAAZACYCLOHEXADECIN-20-YL)-3-(M-TOLYL)-2-(3-(P-TOLYL)UREIDO)PROPANAMIDE] ({NH(4-Me-phenyl)-CO}-[Phe(3-Me)][aThr][Hyp][Pip]A[Pro(4R-Me)]; ester 2-C)",Mouse,[1]; [3],99.1 ± 0.15%
same,Human,[2]; [4],>50 h
"Cc1cccc(C[C@H](NC(=O)Nc2ccc3c(c2)OCCO3)C(=O)N[C@@H]2C(=O)N3C[C@H](O)C[C@H]3C(=O)N3CCOC[C@H]3C(=O)N[C@@H](C)C(=O)N3C[C@H](C)C[C@H]3C(=O)O[C@H]2C)c1 [Compound 27, (S)-2-(3-(2,3-DIHYDROBENZO[B][1,4]DIOXIN-6-YL)UREIDO)-N-((6AS,8R,12S,13S,15AS,17R,21S,23AS)-8-HYDROXY-13,17,21-TRIMETHYL-6,11,15,20,23-PENTAOXOOCTADECAHYDRO-6H,11H,15H-[1,4]OXAZINO[3,4-I]DIPYRROLO[2,1-C:2′,1′-L][1]OXA[4,7,10,13]TETRAAZACYCLOHEXADECIN-12-YL)-3-(M-TOLYL)PROPANAMIDE] ({X3-CO}-[Phe(3-Me)][aThr][Hyp][Morpholine(3S-CO)]A[Pro(4R-Me)]; ester 2-C)",Mouse,"[1]; mouse, 4 h, 10 μM, pH 7.4",93.2 ± 3.2%
same,Human,"[2]; human, 10 μM",>50 h
"Cc1cccc(C[C@H](NC(=O)Nc2ccc3c(c2)OCCO3)C(=O)N[C@@H]2C(=O)N3C[C@H](O)C[C@H]3C(=O)N3CCCC[C@H]3C(=O)N[C@@H](C)C(=O)N3C[C@H](C)C[C@H]3C(=O)O[C@H]2C)c1 [Compound 28, (S)-2-(3-(2,3-DIHYDROBENZO[B][1,4]DIOXIN-6-YL)UREIDO)-N-((2R,6S,8AS,14AS,16R,20S,21S,23AS)-16-HYDROXY-2,6,21-TRIMETHYL-5,8,14,19,23-PENTAOXOOCTADECAHYDRO-1H,5H,14H,19H-PYRIDO[2,1-I]DIPYRROLO[2,1-C:2′,1′-L][1]OXA[4,7,10,13]TETRAAZACYCLOHEXADECIN-20-YL)-3-(M-TOLYL)PROPANAMIDE] ({X3-CO}-[Phe(3-Me)][aThr][Hyp][Pip]A[Pro(4R-Me)]; ester 2-C)",Mouse,"[1]; mouse, 4 h, 10 μM, pH 7.4",98.1 ± 8.1%
same,Human,"[2]; human, 10 μM",>50 h
"Cc1cccc(C[C@H](NC(=O)Nc2ccc(Cl)cc2F)C(=O)N[C@@H]2C(=O)N3C[C@H](OP(=O)(O)O)C[C@H]3C(=O)N3CCCC[C@H]3C(=O)N[C@@H](C)C(=O)N3C[C@H](C)C[C@H]3C(=O)O[C@H]2C)c1 [Compound 29, (2R,6S,8AS,14AS,16R,20S,21S,23AS)-20-((S)-2-(3-(4-CHLORO-2-FLUOROPHENYL)UREIDO)-3-(M-TOLYL)PROPANAMIDO)-2,6,21-TRIMETHYL-5,8,14,19,23-PENTAOXOOCTADECAHYDRO-1H,5H,14H,19H-PYRIDO[2,1-I]DIPYRROLO[2,1-C:2′,1′-L][1]OXA[4,7,10,13]TETRAAZACYCLOHEXADECIN-16-YL DIHYDROGEN PHOSPHATE] ({NH(4-Cl-2-F-phenyl)-CO}-[Phe(3-Me)][aThr][X5][Pip]A[Pro(4R-Me)]; ester 2-C)",Mouse,[1]; [3],96.9 ± 6.9%
same,Human,[2]; [4],>50 h
"C[C@@H]1C[C@H]2C(=O)O[C@@H](C)[C@H](NC(=O)[C@H](Cc3cccc(Cl)c3)NC(=O)Nc3ccc(Cl)cc3F)C(=O)N3CCC[C@H]3C(=O)N3CCN(C)C[C@H]3C(=O)N[C@@H](C)C(=O)N2C1 [Compound 33] ({NH(4-Cl-2-F-phenyl)-CO}-[Phe(3-Cl)][aThr]P[Piperazine(2S-CO,4-Me)]A[Pro(4R-Me)]; ester 2-C)",Mouse,"[1]; mouse, 4 h, 10 μM, pH 7.4",99.5 ± 9.5%
same,Human,"[2]; human, 10 μM",>50 h
"Cc1cccc(C[C@H](NC(=O)Nc2ccc(Cl)c(F)c2)C(=O)N[C@@H]2C(=O)N3CCC[C@H]3C(=O)N3CCCC[C@H]3C(=O)N[C@@H](C)C(=O)N3C[C@H](C)C[C@H]3C(=O)O[C@H]2C)c1 [Compound 35, (S)-2-(3-(4-CHLORO-3-FLUOROPHENYL)UREIDO)-3-(M-TOLYL)-N-((2R,6S,8AS,14AS,20S,21S,23AS)-2,6,21-TRIMETHYL-5,8,14,19,23-PENTAOXOOCTADECAHYDRO-1H,5H,14H,19H-PYRIDO[2,1-I]DIPYRROLO[2,1-C:2′,1′-L][1]OXA[4,7,10,13]TETRAAZACYCLOHEXADECIN-20-YL)PROPANAMIDE] ({X2-CO}-[Phe(3-Me)][aThr]P[Pip]A[Pro(4R-Me)]; ester 2-C)",Mouse,"[1]; mouse, 4 h, 10 μM, pH 7.4",99.7 ± 9.7%
same,Human,"[2]; human, 10 μM",>50 h
"Cc1cccc(C[C@H](NC(=O)Nc2ccc(Cl)cc2F)C(=O)N[C@@H]2C(=O)N3CCC[C@H]3C(=O)N3CCS(=O)(=O)C[C@H]3C(=O)N[C@@H](C)C(=O)N3C[C@H](C)C[C@H]3C(=O)O[C@H]2C)c1 [Compound 40, (S)-2-(3-(4-CHLORO-2-FLUOROPHENYL)UREIDO)-3-(M-TOLYL)-N-((6AS,12S,13S,15AS,17R,21S,23AR)-13,17,21-TRIMETHYL-2,2-DIOXIDO-6,11,15,20,23-PENTAOXOOCTADECAHYDRO-6H,11H,15H-DIPYRROLO[2,1-C:2′,1′-L][1,4]THIAZINO[3,4-I][1]OXA[4,7,10,13]TETRAAZACYCLOHEXADECIN-12-YL)PROPANAMIDE] ({NH(4-Cl-2-F-phenyl)-CO}-[Phe(3-Me)][aThr]P[X6]A[Pro(4R-Me)]; ester 2-C)",Mouse,"[1]; mouse, 4 h, 10 μM, pH 7.4",99.4 ± 9.4%
same,Human,"[2]; human, 10 μM",>50 h
"Cc1cccc(C[C@H](NC(=O)Nc2ccc(Cl)cc2F)C(=O)N[C@@H]2C(=O)N3C[C@H](O)C[C@H]3C(=O)N3CCSC[C@H]3C(=O)N[C@@H](C)C(=O)N3C[C@H](C)C[C@H]3C(=O)O[C@H]2C)c1 [Compound 41, (S)-2-(3-(4-CHLORO-2-FLUOROPHENYL)UREIDO)-N-((6AS,8R,12S,13S,15AS,17R,21S,23AR)-8-HYDROXY-13,17,21-TRIMETHYL-6,11,15,20,23-PENTAOXOOCTADECAHYDRO-6H,11H,15H-DIPYRROLO[2,1-C:2′,1′-L][1,4]THIAZINO[3,4-I][1]OXA[4,7,10,13]TETRAAZACYCLOHEXADECIN-12-YL)-3-(M-TOLYL)PROPANAMIDE] ({NH(4-Cl-2-F-phenyl)-CO}-[Phe(3-Me)][aThr][Hyp][X1]A[Pro(4R-Me)]; ester 2-C)",Mouse,"[1]; mouse, 4 h, 10 μM, pH 7.4",99.9 ± 9.9%
same,Human,"[2]; human, 10 μM",>50 h
